This note sets out measurements from US10538555B2, “Macrocyclic inhibitors of the PD-1/PD-L1 and CD80(B7-1)/PD-L1 protein/protein interactions” (BRISTOL-MYERS SQUIBB COMPANY, priority 2014, dated 2020).

Each structure is given as a SMILES string. *1 amine or outer side, *2 acyl side, *3 side chain or, on linkers, in order; H or OH if unused. Where a SMILES comes first, the peptide text is derived from it. Bridges are numbered along the chain shown (N, C = ends). [ ]: non-standard residue; d: D form. ξ: configuration not given here. Trp(1-CH2COOH) = N[C@@H](Cc1cn(CC(=O)O)c2ccccc12)C(=O)O; Phe(3,4,5-F3) = N[C@@H](Cc1cc(F)c(F)c(F)c1)C(=O)O; Trp(2-Me) = Cc1[nH]c2ccccc2c1C[C@H](N)C(=O)O; NMePhe(4-Me) = CN[C@@H](Cc1ccc(C)cc1)C(=O)O; NMePhe(4-F) = CN[C@@H](Cc1ccc(F)cc1)C(=O)O; Phe(4-F) = N[C@@H](Cc1ccc(F)cc1)C(=O)O; NMeY = CN[C@@H](Cc1ccc(O)cc1)C(=O)O; NMeIle(3ξ) = CCC(C)[C@H](NC)C(=O)O; Hyp = O=C(O)[C@@H]1C[C@@H](O)CN1; NMeF = CN[C@@H](Cc1ccccc1)C(=O)O; X1 = O=C([C@H]1COCCN1[*:1])[*:2]; dHyp = O=C(O)[C@H]1C[C@H](O)CN1; NMeNle = CCCC[C@H](NC)C(=O)O; Pip = O=C(O)[C@@H]1CCCCN1; dPip = O=C(O)[C@H]1CCCCN1; hSer = N[C@@H](CCO)C(=O)O; NMeA = CN[C@@H](C)C(=O)O; Orn = NCCC[C@H](N)C(=O)O; Dab = NCC[C@H](N)C(=O)O; dAze = O=C(O)[C@H]1CCN1; Dap = NC[C@H](N)C(=O)O; ξC = NC(CS)C(=O)O; Sar = CNCC(=O)O

The target in the assay is T1, Human PD-L1/PD-1 (Homo sapiens, UniProt Q9NZQ7).
T1 construct: TVMV protease cleavage site (C); made in house; host or cells: HEK293T cells
T1 sequence (Q9NZQ7 with tags, fused parts or gaps): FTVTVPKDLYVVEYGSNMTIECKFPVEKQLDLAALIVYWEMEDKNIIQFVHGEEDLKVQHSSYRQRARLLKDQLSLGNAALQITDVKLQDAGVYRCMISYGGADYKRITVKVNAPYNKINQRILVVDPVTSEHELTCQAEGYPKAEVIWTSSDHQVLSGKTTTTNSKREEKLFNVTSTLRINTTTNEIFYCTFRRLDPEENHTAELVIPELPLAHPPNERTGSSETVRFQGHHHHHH
As to the kind of experiment: HTRF Human PD-L1/PD-1 binding assay (PD-1-Ig/PD-L1-His). To be noted: PD-L1-His 10 nM, PD-1-Ig 20 nM; class symbol; read-out: HTRF Human PD-L1/PD-1 Binding Assay IC50 Range. An outline of the steps:
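Inhibitors were preincubated 15 min with human PD-L1(18-239)-His (10 nM final), then PD-1(25-167)-Ig (20 nM final) was added for 15 min in dPBS/0.1% BSA/0.05% Tween-20. Eu-cryptate anti-Ig (1 nM) and APC anti-His (20 nM) were added; 665/620 nm ratio read after 30 min.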
(In general: TR-FRET usually uses a lanthanide donor and a delayed reading to cut background.)
For the compound `CCCC[C@H]1C(=O)N2CC[C@@H]2C(=O)N[C@@H](CC(=O)O)C(=O)N[C@@H](C(C)C)C(=O)N(C)[C@@H](Cc2ccccc2)C(=O)N[C@@H](CCC(=O)O)C(=O)N2CCOC[C@@H]2C(=O)N[C@@H](Cc2c[nH]c3ccccc23)C(=O)N[C@@H](Cc2ccc(O)cc2)C(=O)N[C@@H](CCCN)C(=O)N[C@H](C(=O)NCC(N)=O)CSCC(=O)N[C@@H](Cc2cc(F)c(F)c(F)c2)C(=O)N(C)[C@@H](Cc2ccccc2)C(=O)N1C` [Example 3643] ({CH2CO}-[Phe(3,4,5-F3)][NMeF][NMeNle][dAze]DV[NMeF]E[X1]WY[Orn]CG-NH2; thioether N-13), the IC50 was in the range of 10 to 99.9 nM. In the case of `CCCC[C@H]1C(=O)N(C)[C@@H](CCCC)C(=O)N[C@@H](C)C(=O)N[C@H](C(=O)NCC(N)=O)CSCC(=O)N[C@@H](Cc2ccc(O)cc2)C(=O)N(C)[C@@H](C)C(=O)N[C@@H](CC(N)=O)C(=O)N2CCC[C@H]2C(=O)N[C@@H](Cc2cnc[nH]2)C(=O)N[C@@H](CCC(N)=O)C(=O)N2C[C@H](O)C[C@H]2C(=O)N[C@@H](Cc2c[nH]c3ccccc23)C(=O)N[C@@H](CO)C(=O)N[C@@H](Cc2c(C)[nH]c3ccccc23)C(=O)N1C` [Example 1285] ({CH2CO}-Y[NMeA]NPHQ[Hyp]WS[Trp(2-Me)][NMeNle][NMeNle]ACG-NH2; thioether N-14) it was 1 to 9.9 nM; in that of `CCCC[C@H]1C(=O)N(C)CC(=O)N[C@@H](CC(=O)O)C(=O)N[C@@H](C(C)C)C(=O)N(C)[C@@H](Cc2ccccc2)C(=O)N[C@@H](Cc2ccc(O)cc2)C(=O)N(C)CC(=O)NC(C)(Cc2c[nH]c3ccccc23)C(=O)N[C@@H](Cc2ccc(O)cc2)C(=O)N[C@@H](CC(C)C)C(=O)N[C@H](C(=O)NCC(N)=O)CSCC(=O)N[C@@H](Cc2ccccc2)C(=O)N(C)[C@@H](Cc2ccccc2)C(=O)N1C` (single isomer, unassigned) [Example 3640-B], 100 to 990 nM. In the case of `CCCC[C@H]1C(=O)N(C)[C@@H](CCCC)C(=O)N[C@@H](CCC(=O)O)C(=O)NC(C(=O)NCC(N)=O)CSCC(=O)N[C@@H](Cc2ccc(O)cc2)C(=O)N(C)[C@@H](C)C(=O)N[C@@H](CC(N)=O)C(=O)N2CCC[C@H]2C(=O)N[C@@H](Cc2c[nH]cn2)C(=O)N[C@@H](CC(N)=O)C(=O)N2C[C@H](O)C[C@H]2C(=O)N[C@@H](Cc2c[nH]c3ccccc23)C(=O)N[C@@H](CO)C(=O)N[C@@H](Cc2c[nH]c3ccccc23)C(=O)N1C` (stereo partly drawn) [Example 9171] ({CH2CO}-Y[NMeA]NPHN[Hyp]WSW[NMeNle][NMeNle]E[ξC]G-NH2; thioether N-14) it was 1 to 9.9 nM; in that of `CCCC[C@H]1C(=O)N(C)[C@@H](CCCC)C(=O)N[C@@H](CCC(=O)O)C(=O)N[C@H](C(=O)NCC(N)=O)CSCC(=O)N[C@@H](Cc2ccc(O)cc2)C(=O)N(C)[C@@H](C)C(=O)N[C@@H](CC(=O)O)C(=O)N2CCC[C@H]2C(=O)N[C@@H](Cc2c[nH]cn2)C(=O)N[C@@H](CCCCNC(C)=O)C(=O)N2C[C@H](O)C[C@H]2C(=O)N[C@@H](Cc2c[nH]c3ccccc23)C(=O)N[C@@H](CO)C(=O)N[C@@H](Cc2c[nH]c3ccccc23)C(=O)N1C` [Example 5255] ({CH2CO}-Y[NMeA]DPHK(Ac)[Hyp]WSW[NMeNle][NMeNle]ECG-NH2; thioether N-14), 1 to 9.9 nM.

For the compound `CCCC[C@H]1C(=O)N2CCC[C@@H]2C(=O)N[C@@H](CC(=O)O)C(=O)N[C@@H](C(C)C)C(=O)N(C)[C@@H](C(C)CC)C(=O)N[C@@H](Cc2ccc(O)cc2)C(=O)N2CCCC[C@@H]2C(=O)N[C@@H](Cc2c[nH]c3ccccc23)C(=O)N[C@@H](Cc2ccc(O)cc2)C(=O)N[C@@H](CCCN)C(=O)N[C@H](C(=O)NCC(N)=O)CSCC(=O)N[C@@H](Cc2ccc(F)cc2)C(=O)N(C)[C@@H](Cc2ccccc2)C(=O)N1C` (stereo partly drawn) [Example 9259] ({CH2CO}-[Phe(4-F)][NMeF][NMeNle][dP]DV[NMeIle(3ξ)]Y[dPip]WY[Orn]CG-NH2; thioether N-13), the IC50 is 1000 to 10000 nM. In the case of `CCCC[C@H]1C(=O)N(C)[C@@H](CCCC)C(=O)N[C@@H](CCC(=O)O)C(=O)N[C@H](C(=O)NCC(N)=O)CSCC(=O)N[C@@H](Cc2ccc(OC)cc2)C(=O)N(C)[C@@H](C)C(=O)N[C@@H](CC(=O)O)C(=O)N2CCC[C@H]2C(=O)N[C@@H](Cc2cnc[nH]2)C(=O)N[C@@H](CCC(=O)O)C(=O)N2C[C@H](O)C[C@H]2C(=O)N[C@@H](Cc2c[nH]c3ccccc23)C(=O)N[C@@H](CCN)C(=O)N[C@@H](Cc2c[nH]c3ccccc23)C(=O)N1C` [Example 7110] ({CH2CO}-Y(Me)[NMeA]DPHE[Hyp]W[Dab]W[NMeNle][NMeNle]ECG-NH2; thioether N-14) it was 1 to 9.9 nM. In the case of `CCCC[C@H]1C(=O)N(C)[C@@H](CCCC)C(=O)N[C@@H](CN)C(=O)N[C@H](C(=O)NCC(N)=O)CSCC(=O)N[C@@H](Cc2ccc(O)cc2)C(=O)N2CCCC[C@H]2C(=O)N[C@@H](CC(N)=O)C(=O)N2CCC[C@H]2C(=O)N[C@@H](Cc2cnc[nH]2)C(=O)N[C@@H](CCC(N)=O)C(=O)N2C[C@H](O)C[C@H]2C(=O)N[C@@H](Cc2c[nH]c3ccccc23)C(=O)N[C@@H](CCN)C(=O)N[C@@H](Cc2cn(CC(=O)O)c3ccccc23)C(=O)N1C` [Example 1298] ({CH2CO}-Y[Pip]NPHQ[Hyp]W[Dab][Trp(1-CH2COOH)][NMeNle][NMeNle][Dap]CG-NH2; thioether N-14) it was 1 to 9.9 nM; in that of `CCCC[C@H]1C(=O)N2CCC[C@@H]2C(=O)N[C@@H](CC(=O)O)C(=O)N[C@@H](C)C(=O)N(C)[C@@H](Cc2ccccc2)C(=O)N[C@@H](Cc2ccc(O)cc2)C(=O)N(C)CC(=O)N[C@@H](Cc2c[nH]c3ccccc23)C(=O)N[C@@H](Cc2ccc(O)cc2)C(=O)N[C@@H](CC(C)C)C(=O)N[C@H](C(=O)NCC(N)=O)CSCC(=O)N[C@@H](Cc2ccccc2)C(=O)N(C)[C@@H](Cc2ccccc2)C(=O)N1C` [Example 10044] ({CH2CO}-F[NMeF][NMeNle][dP]DA[NMeF]Y[Sar]WYLCG-NH2; thioether N-13), 10 to 99.9 nM. As for `CCCC[C@H]1C(=O)N2CCC[C@@H]2C(=O)N[C@@H](CC(=O)O)C(=O)N[C@@H](C(C)C)C(=O)N(C)[C@@H](Cc2ccccc2)C(=O)N[C@@H](CCC(=O)O)C(=O)N2CCOC[C@@H]2C(=O)N[C@@H](Cc2c[nH]c3ccccc23)C(=O)N[C@@H](Cc2ccc(O)cc2)C(=O)N[C@@H](CC(C)C)C(=O)N[C@H](C(=O)NCC(N)=O)CSCC(=O)N[C@@H](Cc2cc(F)c(F)c(F)c2)C(=O)N(C)[C@@H](Cc2ccc(O)cc2)C(=O)N1C` [Example 10615] ({CH2CO}-[Phe(3,4,5-F3)][NMeY][NMeNle][dP]DV[NMeF]E[X1]WYLCG-NH2; thioether N-13), the IC50 fell in the range of 10 to 99.9 nM. As to `CCCC[C@H]1C(=O)N(C)CC(=O)N[C@@H](CC(=O)O)C(=O)N[C@@H](C(C)C)C(=O)N[C@@H](Cc2c[nH]c3ccccc23)C(=O)N[C@@H](Cc2ccc(O)cc2)C(=O)N(C)CC(=O)N[C@@H](Cc2c[nH]c3ccccc23)C(=O)N[C@@H](Cc2ccc(O)cc2)C(=O)N[C@@H](CC(C)C)C(=O)N[C@H](C(=O)NCC(N)=O)CSCC(=O)N[C@@H](Cc2ccccc2)C(=O)N(C)[C@@H](Cc2ccccc2)C(=O)N1C` [Example 3232] ({CH2CO}-F[NMeF][NMeNle][Sar]DVWY[Sar]WYLCG-NH2; thioether N-13), the IC50 was 1000 to 10000 nM.

As for `CCCC[C@H]1C(=O)N(C)[C@@H](CCCC)C(=O)N[C@@H](CO)C(=O)N[C@H](C(=O)NCC(N)=O)CSCC(=O)N[C@@H](Cc2ccc(OC)cc2)C(=O)N(C)[C@@H](C)C(=O)N[C@@H](CC(N)=O)C(=O)N2CCC[C@H]2C(=O)N[C@@H](CO)C(=O)N[C@@H](CCC(N)=O)C(=O)N2C[C@H](O)C[C@H]2C(=O)N[C@@H](Cc2c[nH]c3ccccc23)C(=O)N[C@@H](CO)C(=O)N[C@@H](Cc2c[nH]c3ccccc23)C(=O)N1C` [Example 7138] ({CH2CO}-Y(Me)[NMeA]NPSQ[Hyp]WSW[NMeNle][NMeNle]SCG-NH2; thioether N-14), the IC50 was 1 to 9.9 nM. On to `CCCC[C@H]1C(=O)N2CCC[C@@H]2C(=O)N[C@@H](CC(=O)O)C(=O)N[C@@H](C(C)C)C(=O)N(C)[C@@H](Cc2ccccc2)C(=O)N[C@@H](CCC(=O)O)C(=O)N2CCOC[C@@H]2C(=O)N[C@@H](Cc2c[nH]c3ccccc23)C(=O)N[C@@H](Cc2ccc(O)cc2)C(=O)N[C@@H](CC(C)C)C(=O)N[C@H](C(=O)NCC(N)=O)CSCC(=O)N[C@@H](Cc2cc(F)c(F)c(F)c2)C(=O)N(C)[C@@H](Cc2ccc(F)cc2)C(=O)N1C` [Example 10593] ({CH2CO}-[Phe(3,4,5-F3)][NMePhe(4-F)][NMeNle][dP]DV[NMeF]E[X1]WYLCG-NH2; thioether N-13), for which the IC50 lay within 1 to 9.9 nM. The value for `CCCC[C@H]1C(=O)N2C[C@@H](O)C[C@@H]2C(=O)N[C@@H](CC(=O)O)C(=O)N[C@@H](C(C)C)C(=O)N(C)[C@@H](Cc2ccc(C)cc2)C(=O)N[C@@H](CCC(=O)O)C(=O)N2CCC[C@@H]2C(=O)N[C@@H](Cc2c[nH]c3ccccc23)C(=O)N[C@@H](Cc2ccc(O)cc2)C(=O)N[C@@H](CC(C)C)C(=O)N[C@H](C(=O)NCC(N)=O)CSCC(=O)N[C@@H](Cc2cc(F)c(F)c(F)c2)C(=O)N(C)[C@@H](Cc2ccccc2)C(=O)N1C` [Example 10117] ({CH2CO}-[Phe(3,4,5-F3)][NMeF][NMeNle][dHyp]DV[NMePhe(4-Me)]E[dP]WYLCG-NH2; thioether N-13) was 100 to 990 nM; that for `CCCC[C@H]1C(=O)N[C@@H](CC(N)=O)C(=O)N2CCC[C@H]2C(=O)N[C@@H](CO)C(=O)N[C@@H](CCO)C(=O)N2C[C@H](O)C[C@H]2C(=O)N[C@@H](Cc2c[nH]c3ccccc23)C(=O)N[C@@H](CCCN)C(=O)N[C@@H](Cc2c[nH]c3ccccc23)C(=O)N(C)[C@@H](C)C(=O)N(C)CC(=O)N[C@@H](CCCNC(=N)N)C(=O)NC(C(=O)NCC(N)=O)CSCC(=O)N[C@@H](Cc2ccc(O)cc2)C(=O)N1C` (stereo partly drawn) [Example 10207] ({CH2CO}-Y[NMeNle]NPS[hSer][Hyp]W[Orn]W[NMeA][Sar]R[ξC]G-NH2; thioether N-14) was 1000 to 10000 nM.
